Test results from patent publication US20160324992A1, “IDENTIFICATION AND TREATMENT OF VULNERABLE PLAQUES” (OTTAWA HEART INSTITUTE RESEARCH CORPORATION, priority 2015, published 2016).
Entries after “also recorded” stand apart in the source; their conditions may differ.

Tests used:
Serum stability testing = format: in vitro ADME; settings: 37° C., 24 hours, HPLC
Procedure: Serum stability testing of 7-^123I-O-Nec-1. Serum stability testing was carried out by mixing 25 μL of 7-^123I-O-Nec-1 (5) and 100 μL of rat serum at 37 ° C. for 24 hours. […] cold EtOH was added afterwards, and the mixture was centrifuged at 2500 ×g at 4° C. for 15 minutes to precipitate proteins. The supernatant was injected into HPLC.

[1] = Biodistribution in C57BL/6 mice; format: in vivo; settings: for organ uptake: Blood / organ uptake: Brain / organ uptake: Femur / organ uptake: Heart / organ uptake: Intestine / organ uptake: Kidney / organ uptake: Liver / organ uptake: Lung / organ uptake: Muscle / organ uptake: Ovaries/testis / organ uptake: Spleen / organ uptake: Stomach / organ uptake: Thyroid / organ uptake: Urine: female C57BL/6 mice, i.v. 5.3-6.7 MBq, mean ± SD, n = 3
Procedure: (§1) Biodistribution studies were carried out on C57BL/6 mice weighing 19-21 g and Sprague Dawley rats weighing 400-560 g (Charles River Laboratories, Mass., USA). On the day of experimentation, the animals were anesthetized and maintained under isofluorane during the injection. A tail vein catheter was inserted, 5.3-6.7 MBq of 7-^123I-O-Nec-1 was administered to the mice and 3.1-3.3 MBq of 7-^123I-O-Nec-1 was injected into the rats. The animals were sacrificed at 1 hr or 2 hr post injection (p.i.) (n=3 per group). The heart, liver, kidney, muscle, femur, spleen, blood, brain, intestine, lung, stomach, urine/bladder, ovaries/testes and thyroid were extracted, weighed and analyzed for total gamma counts (Wizard 2 2480 Automatic Gamma Counter, Perkin Elmer). The tissue uptake was decay corrected, and the percentage of injected dose per gram (% ID/g) was calculated.

[2] = Biodistribution in Sprague-Dawley rats; format: in vivo
Procedure: as §1

[3] = test system: atherosclerotic lesions in ApoE−/− mice; test: Ex vivo autoradiography of aorta, en face and Oil Red O comparison; format: in vivo, mouse; settings: for localization of the tracer in the aorta (in words): ApoE−/− mice with established lesions, 2 hours after i.v. injection, en face aortic arch; for correlation between lesion area measured by tracer autoradiography and ORO / en face (in words): ApoE−/− mice, ex vivo
Text: Radiochemistry and ex vivo autoradiography study with ApoE^−/− mice. The tracer ^123I-Nec-1 (7-^123I-Nec-1) was synthesized by a Cu(I) catalyzed direct halogen exchange reaction with the precursor 7-Br-Nec-1 and Na^123I. Eight week-old female apolipoprotein E knockout (Apo E^−/−) mice were purchased from Charles River Laboratories and fed either a chow or western diet (TD.10885, Harlan Laboratories) for 2 months (total n=6 mice). 7-^123I-O-Nec-1 (37.0-55.5 MBq) was administrated intravenously into the mice under anesthetic. After 2 hr, the mice were euthanized and perfused with PBS followed by 10% formalin via left ventricle cannulation. Aorta was dissected from heart at the base using a dissecting microscope following removal of surrounding fat and connective tissue. En face specimens were immediately exposed to super resolution phosphor screens in an autoradiography cassette. After overnight exposure at room temperature, the screens were scanned with a Cyclone Phosphor Imager (Perkin Elmer, Downers Grove, Ill.). Images were analyzed using OptiQuant™ 5.0 software. The regions of interest (ROI) were drawn around the lesions on the aortic arch, and the counts in Digital Light Unit (DLU) and surface areas in mm^2 were measured. The DLU was converted to activity in μCi using a set of calibration standards with known activities, which were exposed and scanned on the same screen used for the aorta samples, as previously described (Zhao et al, 2007; Matter et al., 2006). The percentage injected dose (% ID) was calculated from dividing the activity (pCi) of the lesion by the injected activity. Activity density in % ID/m^2 was calculated and normalized by animal body weight to get % ID×kg/m^2. The areas of the lesions and the whole aortic arch in mm^2 were also recorded using the OptiQuant™ 5.0 software, and the percentage of lesion within the area of the aorta vessel wall was calculated.
Ex vivo autoradiography study with ApoE^−/− mice. Eight week-old female apolipoprotein E knockout (Apo E^−/−) mice were purchased from Charles River Laboratories (Charles River, Canada) and fed either a chow or western diet (TD.10885, Harlan Laboratories) for 2 months (n=3 per group). […] 7-^123I-O-Nec-1 (37.0-55.5 MBq) was administrated intravenously into the mice under anesthetic. After 2 hr, the mice were euthanized in a CO2 chamber. Using a Gilson Minipuls 2 peristaltic pump, the mice were perfused with 20 mL phosphate buffered saline (PBS) followed by 10 mL of 10% formalin via left ventricle cannulation. Perfusate was drained from a cut within the right atrium. Aorta was dissected from heart at the base using a dissecting microscope following removal of surrounding fat and connective tissue. For en face experiments aortic tissues were flattened by a longitudinal cut through one side of the aortic wall cutting through the carotids and the innominant artery until the aorta was split forming a Y-shaped structure.
The uptake and distribution of the tracer on aortic tissue was studied using digital autoradiography method. En face specimens were immediately exposed to super resolution phosphor screens in a Fisher Biotech autoradiography cassette. After overnight exposure at room temperature, the screens were scanned with a Cyclone Phosphor Imager (Perkin Elmer, Downers Grove, Ill.). Images were analyzed using OptiQuant™ 5.0 software. The regions of interest (ROI) were drawn around the lesions on the aortic arch, and the counts in Digital Light Unit (DLU) and surface areas in mm^2 were measured. The DLU was converted to activity in pCi using a set of calibration standards with known activities, which were exposed and scanned on the same screen used for the aorta samples. The percentage injected dose (% ID) was calculated from dividing the activity (pCi) of the lesion by the injected activity. Activity density in % ID/m^2 was calculated and normalized by animal body weight to get % ID×kg/m^2. […]

[4] = male Sprague-Dawley rats, 2 hr p.i., i.v. 3.1-3.3 MBq, mean ± SD, n = 3

## CN1C(=O)NC(Cc2c[nH]c3c([123I])cccc23)C1=O (centres unmarked) [7-^123I-O-Nec-1, 5-((7-lodo (^123I)-1H-indol-3-yl)methyl)-3-methylimidazolidine-2,4-dione]
Serum stability testing
  stability in rat serum: stable in serum, no de-iodination or degradation was found; also recorded: stable in vitro in serum
[1]; biodistribution in C57BL/6 mice, i.v.
  clearance of the tracer (in words): fast renal and liver/gastrointestinal clearance; also recorded: excreted rapidly from the renal system
[1]; 1 hr p.i.
  organ uptake: Blood: 3.149 ± 0.547 % ID/g
  organ uptake: Brain: 0.429 ± 0.170 % ID/g
  organ uptake: Femur: 1.167 ± 0.214 % ID/g
  organ uptake: Heart: 1.868 ± 0.519 % ID/g
  organ uptake: Intestine: 16.578 ± 1.224 % ID/g
  organ uptake: Kidney: 4.296 ± 1.084 % ID/g
  organ uptake: Liver: 4.030 ± 0.824 % ID/g
  organ uptake: Lung: 3.248 ± 0.788 % ID/g
  organ uptake: Muscle: 0.859 ± 0.278 % ID/g
  organ uptake: Ovaries/testis: 2.349 ± 0.570 % ID/g
  organ uptake: Spleen: 2.657 ± 0.390 % ID/g
  organ uptake: Stomach: 19.294 ± 2.556 % ID/g
  organ uptake: Thyroid: 7.344 ± 1.469 % ID/g
  organ uptake: Urine: 103.153 ± 41.005 % ID/g
[1]; 2 hr p.i.
  organ uptake: Blood: 3.136 ± 1.024 % ID/g
  organ uptake: Brain: 0.640 ± 0.847 % ID/g
  organ uptake: Femur: 1.189 ± 0.205 % ID/g
  organ uptake: Heart: 1.405 ± 0.484 % ID/g
  organ uptake: Intestine: 25.573 ± 19.206 % ID/g
  organ uptake: Kidney: 3.841 ± 0.429 % ID/g
  organ uptake: Liver: 2.562 ± 0.916 % ID/g
  organ uptake: Lung: 2.975 ± 1.025 % ID/g
  organ uptake: Muscle: 0.723 ± 0.307 % ID/g
  organ uptake: Ovaries/testis: 1.462 ± 0.184 % ID/g
  organ uptake: Spleen: 2.173 ± 0.728 % ID/g
  organ uptake: Stomach: 25.711 ± 4.877 % ID/g
  organ uptake: Thyroid: 18.387 ± 14.764 % ID/g
  organ uptake: Urine: 80.627 ± 12.850 % ID/g
[1]; normal C57BL/6 mice, thyroid and stomach uptake 1 hr to 2 hr p.i.
  in vivo de-iodination (in words): de-iodination over time; also recorded: some degree of in vivo de-iodination; also recorded: limited in vivo de-iodination
[2]; biodistribution in Sprague-Dawley rats, i.v., 2 hr p.i.
  clearance of the tracer (in words): fast renal and liver/gastrointestinal clearance; also recorded: excreted rapidly from the renal system
[2]; [4]
  organ uptake: Blood: 0.153 ± 0.031 % ID/g
  organ uptake: Brain: 0.023 ± 0.004 % ID/g
  organ uptake: Femur: 0.052 ± 0.009 % ID/g
  organ uptake: Heart: 0.098 ± 0.007 % ID/g
  organ uptake: Intestine: 0.867 ± 0.062 % ID/g
  organ uptake: Kidney: 0.236 ± 0.016 % ID/g
  organ uptake: Liver: 0.226 ± 0.028 % ID/g
  organ uptake: Lung: 0.143 ± 0.013 % ID/g
  organ uptake: Muscle: 0.048 ± 0.005 % ID/g
  organ uptake: Ovaries/testis: 0.089 ± 0.009 % ID/g
  organ uptake: Spleen: 0.106 ± 0.009 % ID/g
  organ uptake: Stomach: 1.685 ± 0.395 % ID/g
  organ uptake: Thyroid: 1.407 ± 0.189 % ID/g
  organ uptake: Urine: 2.513 ± 0.282 % ID/g
[2]; normal Sprague-Dawley rats
  in vivo de-iodination (in words): some degree of in vivo de-iodination
[3]; 4 month old mice, 37.0-55.5 MBq i.v., 2 hr, n=3 per group
  aortic lesion uptake in HFD-fed ApoE−/− mice versus chow-fed ApoE−/− and control mice (in words): significantly higher tracer uptake
[3]; 4 month old mice, 2 hr p.i., p=0.3
  lesion uptake in chow-fed ApoE−/− mice versus aortic arch uptake of control mice (in words): similar; also recorded: not statistically significant
[3]; listed as 123I-Nec-1
  localization of the tracer in the aorta (in words): primarily localized to areas of plaque accumulation
  correlation between lesion area measured by tracer autoradiography and ORO / en face (in words): significant correlation
[3]; listed as 123INec-1
  localization of the tracer in the aorta (in words): specifically localizes to advanced atherosclerotic lesion areas
[3]
  correlation between lesion area measured by tracer autoradiography and ORO / en face (in words): good correlation
